# In patent US20200397784A1 (priority 2019, published 2020):
# Like-named read-outs stand apart in the source and are kept apart here. Marks after values point to notes of the source that are not given here.
# Assays:
# [1] = tested on: influenza A virus; format: in vivo, mice
# [2] = tested on: A/Puerto Rico/8/34
# [3] = tested on: Influenza A/Vietnam/1203/2004 (H5N1) virus; format: in vivo, BALB/c mice; details: treatment +48 h
# [4] = tested on: Influenza A/California/04/2009 (pndH1N1) virus; format: in vivo; details: pndH1N1 BALB/c mice
# [5] = tested on: influenza A; assay: Mouse influenza A model: lung viral titer; format: in vivo, mice; details: study day 6
# Protocol: The effectiveness of Compound (1) to reduce lung viral titers was investigated. Mice were infected with influenza A and 24 h later vehicle, oseltamivir (10 mg/kg BID) or Compound (1) (3, 10, 30 mg/kg BID) was administered until lung harvest and viral burden determination on day 6 (Table 27).
# [6] = tested on: influenza virus B/Mass/3/66; assay: Mouse influenza B model, Compound (1) with or without Oseltamivir; format: in vivo, Balb/c mice
# [7] = tested on: Influenza A/Victoria/3/75 (H3N2) virus; format: in vivo, BALB/c mice
# [8] = tested on: influenza virus A/PR/8/34; assay: Mouse influenza A model, Compound (1) with or without Oseltamivir, treatment +48 h; format: in vivo, Balb/c mice
# [9] = tested on: A/Puerto Rico/8/34; format: cell-based, influenza A virus
# [10] = tested on: influenza A/PR/8/34; assay: Mouse influenza A model, combination of Compound (1) with zanamivir; format: in vivo; details: A/PR/8/34 mice, no Compound (1)
# Protocol: Infected mice were treated with vehicle or escalating dose levels of Form A of the Compound (1) HCl hemihydrate salt Form A (hereinafter in this example simply Compound (1)) in combination with zanamivir starting 24 hours prior to influenza A challenge with 5×10^3 TCID50 A/PR/8/34. The influenza A challenge and Compound (1) suspensions were prepared in a similar manner as described above in Example 8. The challenged mice were treated once IN (intranasal) with zanamivir at 0.3 mg/kg, 1 mg/kg or 3 mg/kg 24 hours prior to IN challenge with 5×10^3 TCID50 A/PR/8/34, and with Compound (1) at 0.1 mg/kg, 0.3 mg/kg, or 1 mg/kg BID for 10 days starting −2 hours prior to the challenge with 5×10^3 TCID50 A/PR/8/34.
# Efficiency quotient, a composite measure of survival, bodyweight loss and lung function (% survival/(% body weight loss at Day 8)*(Penh at Day 6)) is summarized in Table 24B.
# [11] = treatment start +24 h, 10 mg/kg BID
# [12] = treatment start +48 h, 10 mg/kg BID
# [13] = treatment start +72 h, 10 mg/kg BID
# [14] = 10 mg/kg twice a day for 10 days
# [15] = Oseltamivir 10 mg/kg BID prophylaxis
# [16] = influenza B/Mass/3/66 mice, Oseltamivir 10 mg/kg PO BID 10 days alone
# [17] = 10 mg/kg twice a day for 10 days starting 2 hours prior to virus exposure
# [18] = 10 mg/kg twice a day, prophylaxis
# [19] = influenza A/PR/8/34 mice, Oseltamivir 10 mg/kg PO BID 10 days alone, from +48 h
structure (smiles),measurement,setting,value
"CCOC(=O)C1=C[C@@H](OC(CC)CC)[C@H](NC(C)=O)[C@@H](N)C1 [Oseltamivir, oseltamivir]",survival,"[1]; mouse influenza A model, oseltamivir 10 mg/kg BID, same experiment",All of the oseltamivir-administered mice survived
same,protection with delayed dosing,"[1]; mouse, in vivo",only provided complete protection when dosing was initiated 24 h or less
same,survival,"[1]; mouse, in vivo",All of the oseltamivir-administered mice survived
same,Percent Survival,"[1]; mouse, in vivo, 10 mg/kg",100%
same,Percent Body Weight Loss on Study Day 8,[1]; [11],−28.9%
same,Percent Survival,[1]; [11],100%
same,Percent Body Weight Loss on Study Day 8,[1]; [12],−31.1%
same,Percent Survival,[1]; [12],80%
same,Percent Body Weight Loss on Study Day 8,[1]; [13],−31.3%
same,Percent Survival,[1]; [13],0%
same,Percent Body Weight Loss on Study Day 8,"[1]; treatment start −2 h, 10 mg/kg BID",−19.1%
same,C.I. (combination index),[2],0.58
same,MDD ± SD (mean day of death of mice that died on or before day 21),[3]; [14],9.5 ± 1.2 days
same,Survivors/Total,[3]; [14],0/10
same,Mean Lung Parameters (Day 6): Virus Titer,[3]; 10 mg/kg twice a day,5.22 ± 0.38 Log10 CCID50/g
same,Mean Lung Parameters (Day 6): Virus Titer,[4]; [15],7.9 ± 0.2 Log10 CCID50/g
same,Mean Lung Parameters (Day 6): Weight,[4]; [15],178 ± 28 mg
same,Mean Lung Parameters (Day 6): Score,"[4]; Oseltamivir 10 mg/kg BID prophylaxis, hemorrhage score 0-4",1.0 ± 0.0^e
same,Survivors/Total,[4]; Oseltamivir 10 mg/kg twice a day for 10 days starting 2 hours prior to virus exposure,10/10***
same,Lung Viral Titer,"[5]; Study 1, 10 mg/kg BID from 24 h post infection for 5 days",6.05 Log10 TCID50
same,Log10 Reduction vs. Vehicle,"[5]; Study 1, 10 mg/kg BID from 24 h post infection",−0.15 Log10
same,"protection from death, BW loss, lung function","[6]; Oseltamivir 10 mg/kg alone, 2 hours prior to influenza B infection",complete protection from death
same,Penh (Day 6/7),[6]; [16],1.08
same,Survival (21 days),[6]; [16],100%
same,Weight Loss (Day 8),[6]; [16],12.8%
same,MDD ± SD (mean day of death of mice that died on or before day 21),[7]; [17],7.0 days
same,Survivors/Total,[7]; [17],9/10***
same,Mean Lung Parameters (Day 6): Virus Titer,[7]; [18],7.0 ± 0.3 Log10 CCID50/g
same,Mean Lung Parameters (Day 6): Weight,[7]; [18],218 ± 24 mg
same,Mean Lung Parameters (Day 6): Score,"[7]; 10 mg/kg twice a day, prophylaxis, lung hemorrhage score 0-4",1.7 ± 1.1
same,"protection from death, BW loss, lung function","[8]; Oseltamivir 10 mg/kg alone, +48 hours post influenza A infection",did not protect from death
same,Penh (Day 3),[8]; [19],2.36
same,Survival (21 days),[8]; [19],0%
same,Weight Loss (Day 8),[8]; [19],32.0%
"CC(=O)N[C@H]1[C@H]([C@H](O)[C@H](O)CO)OC(C(=O)O)=C[C@@H]1N=C(N)N [Zanamivir, zanamivir]",C.I. (combination index),[2],0.64
same,synergy volume,[9],268
same,Survival Rate,"[10]; Zanamivir 0.3 mg/kg IN x 1, 24 h prior to infection",37.5
same,Efficiency Quotient (% survival/(% body weight loss at Day 8)*(Penh at Day 6)),[10]; Zanamivir 0.3 mg/kg IN x 1,0.44
same,Survival Rate,"[10]; Zanamivir 1 mg/kg IN x 1, 24 h prior to infection",50
same,Efficiency Quotient (% survival/(% body weight loss at Day 8)*(Penh at Day 6)),[10]; Zanamivir 1 mg/kg IN x 1,0.73
same,Survival Rate,"[10]; Zanamivir 3 mg/kg IN x 1, 24 h prior to infection",62.5
same,Efficiency Quotient (% survival/(% body weight loss at Day 8)*(Penh at Day 6)),[10]; Zanamivir 3 mg/kg IN x 1,0.73
NC(=O)c1nc(F)c[nH]c1=O [favipiravir],C.I. (combination index),[2],0.89
same,synergy volume,[9],317
CCC(CC)O[C@@H]1C=C(C(=O)O)C[C@H](N)[C@H]1NC(C)=O [oseltamivir carboxylate],synergy volume,"[9]; in combination with Compound (1), Bliss independence method, […]",312
